Experimental data published in patent US11786528B2, “Pyrazolopyrimidine compounds as adenosine receptor antagonists” (EXSCIENTIA LTD., priority 2018, dated 2023).
Converted amounts (≈) assume the structure as drawn.

Experiments:
[1] = biological target: human adenosine receptor sub-type A2b (Homo sapiens (Human), UniProt P29275); test: Affinity for human adenosine A2b receptor by SPR; assay type: binding; details: for IC50: SPR, human A2b receptor; for Relative selectivity for A2a v. A2b: from SPR IC50 values, rounded to 2 significant figures
Procedure: (§1) Affinity for the human adenosine receptor sub-types (A2a, A2b, A1 and A3) was determined by surface plasmon resonance (SPR) using published methodologies (see below for further details).
(§2) Affinity for the human adenosine receptor sub-types (A2a, A2b, A1 and A3) was determined by SPR as described in Aristotelous, T., et al, Methods in Enzymology (2015), Volume 556, Chapter 23, pages 499-525 and Congreve, M., et al, J Med Chem (2012), Vol. 55, pages 1898-1903. The method used was analogous to the method used in Congreve, M., et al (see supplementary page S10) for the A2a receptor, but the wild type receptor was used rather than the proprietary StaR form.

[2] = biological target: human adenosine receptor sub-type A1 (Homo sapiens (Human), UniProt P30542); test: Affinity for human adenosine A1 receptor by SPR; assay type: binding; details: for IC50: SPR, human A1 receptor; for Relative selectivity for A2a v. A1: from SPR IC50 values, rounded to 2 significant figures
Procedure: as §1, §2

[3] = biological target: human adenosine receptor sub-type A3 (Homo sapiens (Human), UniProt P0DMS8); test: Affinity for human adenosine A3 receptor by SPR; assay type: binding; details: for Relative selectivity for A2a v. A3: from SPR IC50 values, rounded to 2 significant figures
Procedure: as §1, §2

[4] = biological target: human A2a receptors (HEK 293 transfected) (Homo sapiens (Human), UniProt P29274); test: Inhibition of cAMP release in HEK-A2aR cells (HTRF, LANCE Ultra cAMP); assay type: cell-based; details: 3 nM NECA, 10 min
Procedure: Functional activity was measured by inhibition of cAMP release in HEK cells (see below for further details).
To screen A2a receptor inhibitors by HTRF technology, about 500 HEK-A2aR cells (HEK 293 transfected with human A2a receptors) were treated with inhibitors in presence of stimulation buffer (1×HBSS, 5 mM HEPES, 0.1% BSA stabilizer, pH 7.4) supplemented with 30 μM phosphodiesterase inhibitor Rolipram (to prevent cAMP degradation). This stimulation was immediately followed by treatment with 3 nM standard A2aR agonist (NECA) for 10 min under gentle shaking at room temperature. After that, inhibition of cAMP release was determined directly using LANCE Ultra cAMP assay (Perkin Elmer TRF0263).
All analysis was performed using GraphPad Prism 7.0 (GraphPad Software, San Diego, USA). Results are given, as EC50 (M).

Solubility = assay type: physicochemical; details: water (or specific buffer), thermodynamic from solid, overnight stirring at ambient temperature, LC-UV
Text: The test compound in solid form was suspended in water (or specific buffer). After overnight stirring at ambient temperature protected from light, suspensions were filtered. An aliquot of the resulting supernatant was quantified using LC-UV method against a reference solution in DMSO obtained by preparation from powder.

[5] = biological target: human adenosine receptor sub-type A2a (wild type) (Homo sapiens (Human), UniProt P29274); test: Affinity for human adenosine A2a receptor by surface plasmon resonance (SPR); assay type: binding
Procedure: as §1, §2

MCA-205 tumor = test: Inhibition of the growth of MCA-205 tumor in syngeneic mice; assay type: in vivo, mouse; details: 30 mg/kg BID oral gavage, 11 consecutive days from day 10; day 19 to study termination; p<0.005 and p<0.001
Procedure: C57/BI6JRjJL female mice (9-10 weeks old from Janvier Laboratories) were engrafted in subcutaneous location with 0.25.10^6 MCA-205 cells (suspended in 100% PBS buffer, fibrosarcoma cell line kindly provided by Dr. J. Stagg, Universite de Montréal, Canada). Mice were then kept in a post-operative cabinet at 28° C. until complete recovery.
Randomization of mice was performed on day 9 post-cell inoculation, after measurement of tumour volumes using a digital caliper. Assuming an ovoid form of the tumour, the following formula was applied: Volume=0.52×(width)^2×length. Width and length were expressed in mm, volume in mm^3. Twenty-six female mice were allocated in two groups: vehicle and Example 1 (n=13 mice/group). Oral gavage with vehicle (control group, PEG200/Soluplus 10% in Citrate Buffer pH3 at 50 mM (50%/50% w/v)) or Example 1 solubilized in the vehicle at 30 mg/kg in BID (twice daily administrations by oral gavage with a volume of administration of 5 ml/kg) was initiated 10 days after cell inoculation and continued for 11 consecutive days.

[6] = system: human primary CD3+ T-cells; test: Recovery of 2-chloroadenosine (CADO) mediated inhibition of IL-2 production; assay type: cell-based; details: T-cell, two donors, 10 μM CADO, 48 hours
Procedure: CD3^+ cells were isolated from Buffy Coat of two human healthy donors (Donor 1: D1 and Donor 2: D2) with the RosetteSep technology (RosetteSep Human T cell enrichment cocktail from Stem Cell) according to provider's instructions. T-cells were then stimulated with anti-CD3 mAb, anti-CD28 mAb coated beads (Dynabeads® Human T-Activator CD3/CD28 (Thermo Fisher Scientific) in a complete medium containing 10% fetal bovine serum in the presence or not of Example 1. After one hour incubation time, CADO (2-chloroadenosine, Abcam Biochemical) at 10 μM was added to the culture. After 48 hours of stimulation at 37° C., 5% CO2 and a short centrifugation, culture supernatant were harvested and stored at −80° C. for further evaluation by ELISA. In the meantime, a staining with a living dye was performed to access compound-induced toxicity. Il-2 measurement was performed by using the Human IL-2 Uncoated ELISA (Invitrogen) following data sheet instructions. To access the percentage of IL-2 inhibition induced by 10 μM CADO, the calculation used control condition (cells stimulated in basal condition). Then to access compound-induced recovery of IL-2 production, each dose was normalized following this formula: ([sample]−[mean of CADO])/([mean of basal condition]−[mean of CADO])*100. Compounds normalization was performed per plate. […]

Chain of human adenosine receptor sub-type A1 (P30542 whole entry): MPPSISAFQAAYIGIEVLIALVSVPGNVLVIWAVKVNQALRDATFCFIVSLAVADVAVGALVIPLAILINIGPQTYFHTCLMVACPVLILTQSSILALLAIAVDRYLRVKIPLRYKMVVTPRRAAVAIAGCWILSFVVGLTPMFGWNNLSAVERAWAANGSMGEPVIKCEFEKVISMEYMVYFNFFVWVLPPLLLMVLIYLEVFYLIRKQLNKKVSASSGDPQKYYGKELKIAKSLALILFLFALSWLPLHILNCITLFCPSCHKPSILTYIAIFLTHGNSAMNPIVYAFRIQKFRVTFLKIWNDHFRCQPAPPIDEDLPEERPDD
Chain of human adenosine receptor sub-type A2b (P29275 whole entry): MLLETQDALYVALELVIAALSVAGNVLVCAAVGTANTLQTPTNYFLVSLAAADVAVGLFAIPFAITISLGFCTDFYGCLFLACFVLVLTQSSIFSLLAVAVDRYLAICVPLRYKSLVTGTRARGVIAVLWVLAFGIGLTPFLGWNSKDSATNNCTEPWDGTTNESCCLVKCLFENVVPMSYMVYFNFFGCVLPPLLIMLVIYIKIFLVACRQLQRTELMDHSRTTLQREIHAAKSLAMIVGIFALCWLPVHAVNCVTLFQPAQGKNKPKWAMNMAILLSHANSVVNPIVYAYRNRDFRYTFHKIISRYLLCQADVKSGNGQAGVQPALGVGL
Chain of human adenosine receptor sub-type A3 (P0DMS8 whole entry): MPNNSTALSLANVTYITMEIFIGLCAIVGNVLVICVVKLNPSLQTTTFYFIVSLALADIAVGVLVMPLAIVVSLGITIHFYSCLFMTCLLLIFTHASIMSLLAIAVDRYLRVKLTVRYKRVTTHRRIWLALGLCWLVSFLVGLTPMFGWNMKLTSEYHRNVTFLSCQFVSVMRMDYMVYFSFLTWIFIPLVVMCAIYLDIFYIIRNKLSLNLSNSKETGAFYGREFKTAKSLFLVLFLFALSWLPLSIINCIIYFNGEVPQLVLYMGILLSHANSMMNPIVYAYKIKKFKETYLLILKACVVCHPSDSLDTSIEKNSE
Chain of human A2a receptors (HEK 293 transfected) (P29274 whole entry): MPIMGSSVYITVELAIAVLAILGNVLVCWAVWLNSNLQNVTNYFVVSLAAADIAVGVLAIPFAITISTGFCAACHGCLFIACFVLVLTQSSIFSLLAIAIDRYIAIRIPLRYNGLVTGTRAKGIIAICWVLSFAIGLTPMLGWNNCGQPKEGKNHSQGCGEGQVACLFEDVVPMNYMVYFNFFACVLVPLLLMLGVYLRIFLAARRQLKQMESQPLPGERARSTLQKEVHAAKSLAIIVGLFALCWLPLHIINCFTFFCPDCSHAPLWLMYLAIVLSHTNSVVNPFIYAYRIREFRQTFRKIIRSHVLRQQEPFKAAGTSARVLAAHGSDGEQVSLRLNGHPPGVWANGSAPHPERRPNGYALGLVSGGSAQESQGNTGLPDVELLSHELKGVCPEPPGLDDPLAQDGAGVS
Chain of human adenosine receptor sub-type A2a (wild type) (P29274 whole entry): as above

SMILES | IC50 [1] [nM] | Relative selectivity for A2a v. A2b [1] | IC50 [2] [nM] | Relative selectivity for A2a v. A1 [2] | A3 SPR IC50 ([3]; SPR, human A3 receptor) | Relative selectivity for A2a v. A3 [3] | EC50 [4] [nM] | solubility (Solubility) [µg/mL] | IC50 [5] [nM] | IC50 ([3]; SPR, human A3 receptor) [nM] | mean tumor volume (MCA-205 tumor) | EC50 [6] [nM]
Cc1ccc(Cn2cc3c(N)nc(-c4ccsn4)nc3n2)cc1F [Example 19, 2-[(3-fluoro-4-methylphenyl)methyl]-6-(1,2-thiazol-3-yl)-2H-pyrazolo[3,4-d]pyrimidin-4-amine] | 1450 | 260 | 1180 | 210 | Non- | >10000 | 84 | > 5 | 5.6 | – | – | –
COc1cccc(Cn2cc3c(N)nc(-c4nccs4)nc3n2)c1 [Example 8, 2-[(3-methoxyphenyl)methyl]-6-(1,3-thiazol-2-yl)-2H-pyrazolo[3,4-d]pyrimidin-4-amine] | – | – | – | – | – | – | 23 | > 10 | 11 | – | – | –
COc1ccccc1Cn1cc2c(N)nc(-c3ccc(C)o3)nc2n1 [Comparative Example 1, reference compound] | 4910 | 2200 | 114 | 51 | – | 900 | 18 | 1 (≈ 2.98 µM) | 2.2 | 1970 | – | –
Nc1nc(-c2ccsn2)nc2nn(Cc3cccc(Cl)c3)cc12 [Example 35, 2-[(3-chlorophenyl)methyl]-6-(1,2-thiazol-3-yl)-2H-pyrazolo[3,4-d]pyrimidin-4-amine] | 530 | 130 | 290 | 69 | – | 1100 | 60 | > 10 | 4.2 | 4700 | – | –
COc1ccccc1Cn1cc2c(N)nc(-c3cnccn3)nc2n1 [Example 37, 2-[(2-methoxyphenyl)methyl]-6-(pyrazin-2-yl)-2H-pyrazolo[3,4-d]pyrimidin-4-amine] | – | – | – | – | – | – | 82 | > 10 | 2.7 | – | – | –
Cc1ccc(Cn2cc3c(N)nc(-c4ccsn4)nc3n2)cc1C(F)(F)F [Example 24, 2-{[4-methyl-3-(trifluoromethyl)phenyl]methyl}-6-(1,2-thiazol-3-yl)-2H-pyrazolo[3,4-d]pyrimidin-4-amine] | 25600 | 3200 | 1420 | 180 | – | 6300 | 11 | – | 7.9 | 49900 | – | –
Cc1cccc(Cn2cc3c(N)nc(-c4cnccn4)nc3n2)c1 [Example 27, 2-[(3-methylphenyl)methyl]-6-(pyrazin-2-yl)-2H-pyrazolo[3,4-d]pyrimidin-4-amine] | – | – | – | – | – | – | 7 | > 50 | 3.2 | – | – | –
Nc1nc(-c2ccsn2)nc2nn(Cc3ccccc3O)cc12 [Example 44, 2-{[4-amino-6-(1,2-thiazol-3-yl)-2H-pyrazolo[3,4-d]pyrimidin-2-yl]methyl}phenol] | – | – | – | – | – | – | 127 | > 50 | 15 | – | – | –
Cc1cccc(Cn2cc3c(N)nc(-c4ccsn4)nc3n2)c1 [Example 1, 2-[(3-methylphenyl)methyl]-6-(1,2-thiazol-3-yl)-2H-pyrazolo[3,4-d]pyrimidin-4-amine] | 1500 | 430 | 3100 | 890 | – | 10000 | 4 | – | 3.5 | 35800 | significant inhibition of the mean tumor volume | 560
COc1cccc(Cn2cc3c(N)nc(-c4cnco4)nc3n2)c1 [Example 11, 2-[(3-methoxyphenyl)methyl]-6-(1,3-oxazol-5-yl)-2H-pyrazolo[3,4-d]pyrimidin-4-amine] | 580 | 120 | 350 | 71 | – | 4300 | 70 | > 10 | 4.9 | 21000 | – | –
COc1ccccc1Cn1cc2c(N)nc(-c3ccsn3)nc2n1 [Example 38, 2-[(2-methoxyphenyl)methyl]-6-(1,2-thiazol-3-yl)-2H-pyrazolo[3,4-d]pyrimidin-4-amine] | 11700 | 2700 | 3400 | 790 | – | 10000 | 13 | – | 4.3 | 44300 | – | –
COc1ccccc1Cn1cc2c(N)nc(-c3cnco3)nc2n1 [Example 40, 2-[(2-methoxyphenyl)methyl]-6-(1,3-oxazol-5-yl)-2H-pyrazolo[3,4-d]pyrimidin-4-amine] | 1460 | 730 | 990 | 500 | – | 23000 | 13 | – | 2 | 46200 | – | –
COc1ccc(Cn2cc3c(N)nc(-c4cnccn4)nc3n2)cc1OC [Example 41, 2-[(3,4-dimethoxyphenyl)methyl]-6-(pyrazin-2-yl)-2H-pyrazolo[3,4-d]pyrimidin-4-amine] | – | – | – | – | – | – | – | > 50 | 589 | – | – | –
